Experimental data published in PubChem BioAssay AID608 (Sanford-Burnham Center for Chemical Genomics, 2007).
Calls of active or inactive are those of the source. How the calls were made is not given here. Where a SMILES comes first, the peptide text is derived from it.

Target: Peptidyl-prolyl cis-trans isomerase FKBP1A (Homo sapiens) (UniProt P62942)
Assay: small-molecule binding to FKBP12 – biophysical, NMR detection (AID 608)
Conditions: purified FKBP12

Chain of Peptidyl-prolyl cis-trans isomerase FKBP1A (Homo sapiens) (P62942 whole entry, looked up): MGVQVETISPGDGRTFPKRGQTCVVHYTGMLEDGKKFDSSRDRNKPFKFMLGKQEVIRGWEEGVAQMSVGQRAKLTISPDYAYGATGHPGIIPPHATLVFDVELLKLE

SMILES | Kd
O=C(OCc1c(F)cccc1Cl)c1cnccn1 | > 4 mM (inactive)
O=C1CSC(=O)N1CN1CCOCC1 | > 4 mM (inactive)
C/C(=N\NC(N)=S)C(=O)O | > 4 mM (inactive)
COc1ccccc1NS(=O)(=O)c1c[nH]c(=O)[nH]c1=O | > 4 mM (inactive)
O=C(Nc1cnccn1)c1cccc(C(F)(F)F)c1 | > 4 mM (inactive)
CC(C)c1ccc2c(c1)CCC1C(C)(C(N)=O)CCCC21C (centres undefined) | > 4 mM (inactive)
CN1CCN(C2CCN(Cc3ccccc3)CC2)CC1 | > 4 mM (inactive)
Cc1cc(NC(=O)c2cnn3cccnc23)no1 | > 4 mM (inactive)
COC1C(O)C(O)C(O)[C@@H](O)C1O (some centres undefined) | > 4 mM (inactive)
OCc1ccc2ncccc2c1 | > 4 mM (inactive)
C(=Nn1cnnc1)c1ccccc1 | > 4 mM (inactive)
CCOC(=O)C1CN(C)CCN1C (centres undefined) | > 4 mM (inactive)
N[C@@H](CCC(=O)N[C@@H](CS)C(=O)NCC(=O)O)C(=O)O | > 4 mM (inactive)
C=C1C2CC[C@@]3(C)[C@H](c4ccoc4)OC(=O)C[C@]13O[C@H]1CC(O)C(C)(C)C(CC(=O)OC)[C@@]21C (some centres undefined) | > 4 mM (inactive)
NC1CSCC1O (centres undefined) | > 4 mM (inactive)
O=C1NC(=Nc2ccc(O)cc2)S/C1=C/c1ccco1 | > 4 mM (inactive)
CC12CN3CC(C)(CN(C1)C3c1cccs1)C2O (centres undefined) | > 4 mM (inactive)
C=C1C2CC[C@@]3(C)[C@H](c4ccoc4)OC(=O)C[C@]13O[C@H]1CC(=O)C(C)(C)[C@H](C(OC(C)=O)C(=O)OC)[C@@]21C (some centres undefined) | > 4 mM (inactive)
OCc1snnc1-c1ccccc1 | > 4 mM (inactive)
CC(N)C(=O)c1ccco1 (centres undefined) | > 4 mM (inactive)
COC(=O)C[C@H]1C(C)(C)C(OC(C)=O)[C@]2(O)C=C3C(CC[C@]4(C)C3CC(=O)O[C@H]4c3ccoc3)C1(C)C2=O (some centres undefined) | > 4 mM (inactive)

SMILES | Kd
N/N=C1\CCCc2c1no[n+]2[O-] | > 4 mM (inactive)
O=C(Nc1nncs1)C1(c2ccccc2)CCCC1 | > 4 mM (inactive)
Brc1ccc(-c2nc(-c3ccncc3)no2)o1 | > 4 mM (inactive)
Cc1cccc(NC(=O)c2ccc(=O)[nH]n2)c1 | > 4 mM (inactive)
COc1ccc(C(=O)NC2=NCCS2)cc1OC | > 4 mM (inactive)
Cc1cc(N(CN2CCCC2=O)C(=O)c2ccccc2)no1 | > 4 mM (inactive)
C[C@]12CCC3C(CC[C@]4(O)C[C@@H](O)CC[C@]34C=O)[C@@]1(O)CCC2C1=CC(=O)OC1 (some centres undefined) | > 4 mM (inactive)
c1ccc(SCc2nc(-c3ccccn3)no2)cc1 | > 4 mM (inactive)
Cn1c(=O)c2[nH]c(Nc3ccccc3)nc2n(C)c1=O | > 4 mM (inactive)
Cc1cccc(C)c1NC(=O)CN1CCOCC1 | > 4 mM (inactive)
CC(=O)O[C@H]1C[C@@H](OC(C)=O)C(C)(C)C2CC(=O)[C@]3(C)C(CC[C@@]4(C)[C@H](C(=O)O)OC(=O)C5OC543)[C@]21C (some centres undefined) | > 4 mM (inactive)
O=C(O)CCC(=O)Nc1ccccn1 | > 4 mM (inactive)
NC(=O)CN1CC(=O)NC(=O)C1 | > 4 mM (inactive)
COc1cc(S(=O)(=O)N(C)C)ccc1F | > 4 mM (inactive)
Nc1ccc2c(c1)CCC2=O | > 4 mM (inactive)
Cc1cc(O)cc(=O)o1 | > 4 mM (inactive)
CCCNC(=O)CSc1ncccc1C(=O)O | > 4 mM (inactive)
NC(=O)CSc1nc2ccccc2c(=O)[nH]1 | > 4 mM (inactive)
COc1cc(-c2csc(C)n2)ccc1O | > 4 mM (inactive)
CC(=O)OCc1cc(=O)n(C)c(=O)n1C | > 4 mM (inactive)
C/C(N)=C/C(=O)N1CCCCC1 | > 4 mM (inactive)

SMILES | Kd
COc1ccc(Cl)c(S(=O)(=O)N2CCCC2)c1 | > 4 mM (inactive)
Cc1nnsc1C(=O)Nc1ccc(C(N)=O)cc1 | > 4 mM (inactive)
CNC(=O)C(=O)Nc1ccc(F)cc1 | > 4 mM (inactive)
O=C(O)C1CCN(S(=O)(=O)c2cccs2)CC1 | > 4 mM (inactive)
COc1cc(O)c2c(=O)c(O)c(-c3ccc(O)c(O)c3)oc2c1 | > 4 mM (inactive)
O=C1Nc2ccc(S(=O)(=O)NCCO)c3cccc1c23 | > 4 mM (inactive)
O=c1cc(-c2ccccc2)oc2c(O)c(O)ccc12 | > 4 mM (inactive)
CC(O)c1nc2ccccc2[nH]1 (centres undefined) | > 4 mM (inactive)
CC(=O)Nc1ccc(NC(=O)c2ccncc2)cc1 | > 4 mM (inactive)
Cn1ncc(NC(=O)Nc2ccc(F)cc2F)c1C(N)=O | > 4 mM (inactive)
O=C1CCCCCN1CO | > 4 mM (inactive)
CC(=O)N[C@@H](CC(=O)O)C(=O)N[C@@H](CCC(=O)O)C(=O)O (Ac-Asp-Glu-OH) | > 4 mM (inactive)
COC(=O)c1scc(C)c1N | > 4 mM (inactive)
N#Cc1ccccc1CSc1ccccn1 | > 4 mM (inactive)
CC(=O)Nc1cc2c(cc1C(=O)C(C)C)OCCO2 | > 4 mM (inactive)
NC(=O)CSc1nnc2ccc(-c3ccco3)nn12 | > 4 mM (inactive)
Nc1ccc(-c2csnn2)cc1 | > 4 mM (inactive)
[O-][n+]1onc2c1CCc1c-2nc(-c2ccccc2)n1O | > 4 mM (inactive)
C=C1C(=O)O[C@@H]2C[C@@]3(C)CCC[C@H](C)C3=C[C@H]12 | > 4 mM (inactive)
CCOC(=O)CN1C(=O)c2ccccc2C1=O | > 4 mM (inactive)
O=c1cc(-c2ccc(O)cc2)oc2cc(O)cc(O)c12 | > 4 mM (inactive)

SMILES | Kd
O=C(O)C1=CCCNC1 | > 4 mM (inactive)
CN1C(=O)Cc2cc(S(N)(=O)=O)ccc21 | > 4 mM (inactive)
CS(=O)(=O)N1CCN(c2ncccn2)CC1 | > 4 mM (inactive)
CC1(C)CC(=O)c2sc(N)nc2C1 | > 4 mM (inactive)
CC1(C)C2CC(=O)[C@]3(C)C(CC[C@@]4(C)[C@H](c5ccoc5)OC(=O)[C@H]5O[C@]543)[C@@]2(C)C(=O)C[C@H]1O (some centres undefined) | > 4 mM (inactive)
N#CCCn1ccnc1-c1ccccc1 | > 4 mM (inactive)
COc1ccc(-c2ccc(OC)cc2C(=O)O)cc1 | > 4 mM (inactive)
CC(=O)C1CCC2C3CCC4C[C@H](O)CCC4(C)C3C[C@H](O)C12C (some centres undefined) | > 4 mM (inactive)
NS(=O)(=O)c1ccc(N=Cc2ccc[nH]2)cc1 | > 4 mM (inactive)
Cc1ccc(N2NC(=O)CC2=O)cc1C | > 4 mM (inactive)
Cc1cc(OC(=O)c2c(C)cc(O)cc2O)cc(O)c1C(=O)O | > 4 mM (inactive)
CC(=O)c1ccc[nH]1 | > 4 mM (inactive)
CCOc1ccc(N2C(=O)CCC2=O)cc1 | > 4 mM (inactive)
CC(C)(C)Cc1nc(-c2ccccn2)no1 | > 4 mM (inactive)
CCOC(=O)CNC(=O)CSc1nnc(C)c(=O)[nH]1 | > 4 mM (inactive)
CCOC(=O)c1[nH]cnc1C(=O)OC(C)C | > 4 mM (inactive)
Cc1c(-c2ccc(F)cc2)[n+](=O)c2c(n1[O-])CCC2 | > 4 mM (inactive)
O=C(O)c1ccc2occc2c1 | > 4 mM (inactive)
Cc1cc(C)nc(/N=C(/N)N2CCOCC2)n1 | > 4 mM (inactive)
C=C1C[C@]23C[C@@]1(O)CC[C@H]2[C@@]12C=C[C@H](O)C(C)(C(=O)O1)[C@H]2[C@@H]3C(=O)O | > 4 mM (inactive)
Oc1ccc(C2SCCS2)cc1 | > 4 mM (inactive)
